Measured values: paper PMC4635624, “In vitro and in vivo single-agent efficacy of checkpoint kinase inhibition in acute lymphoblastic leukemia” (Journal of Hematology & Oncology, 2015)
Several values for one entry are separate records, joined by “and”; a condition that tells them apart may be missing. Equal entries are not always repeated. Entries after “also recorded” stand apart in the source; their conditions may differ.

How the values were obtained:
[1] = system: BV-173 cells; assay: γ-H2A.X immunofluorescence analysis; assay type: cell-based, human
Procedure: The so-called hyper-γ-H2A.X-positive cells loose the typical foci signal of γ-H2A.X and emit a much higher and diffuse signal of γ-H2A.X positivity.
NALM-6 and BV-173 cells were seeded to poly-D lysine-coated slides, fixed with 4 % PFA (paraformaldehyde), and stained at 37 °C with a mouse anti-H2A.X-Phosphorylated Alexa 647 conjugated antibody (BioLegend). Then, they were treated with DAPI (4.6 diamidino-2-phenylindole; Sigma Aldrich), and the slides were mounted with Mowiol (Calbiochem). Images were acquired with wide field fluorescence microscope Olympus BX61 fully motorized driven by Metamorph software, and the analysis was performed using the freeware ImageJ software.

[2] = system: B/T-ALL cell lines (BV-173, SUP-B15, REH, NALM-6, NALM-19, MOLT-4, RPMI-8402, CCRF-CEM); assay: Gene expression profiling (Affymetrix GeneChip Human Gene 1.0 ST); assay type: cell-based
Procedure: In order to identify gene expression changes specifically correlated with Chk1 inhibition and to better elucidate the mechanism of action of Chk1 inhibitor, gene expression profiling (GEP) analysis was performed by microarray on treated B/T-ALL cell lines (BV-173, SUP-B15, REH, NALM-6, NALM-19, MOLT-4, RPMI-8402, and CCRF-CEM) and on their untreated counterparts (DMSO 0.1 %) after 24 h of drug exposure. […] To identify peculiar critical pathways affected by Chk1 inhibition, the differentially expressed genes were analyzed in terms of biological function using the MetaCore pathway mapping software (GeneGo Inc.) which categorizes genes in pathway maps, Gene Ontology (GO) cellular processes, and cellular and molecular process networks. Consistent with a Chk1’s mechanism of action, the three top scored maps (map with the lowest p value) were “cell cycle: estrogen receptor 1 (ESR1) regulation of G1/S transition” including c-Jun/c-Fos, cyclin A, CARM1, Skp2/TrCP/FBXW, SKP2, c-Fos, CDK4, NCOA3, c-Jun, and CDK2 genes (Additional file 1: Figure S5); “apoptosis and survival: granzyme A signaling” including PHAP1, Ku70/80, Ku80, Ku70, histone H3, NDPK A, SET, histone H2B, and histone H1 genes (Additional file 1: Figure S6); and “DNA damage: ATM/ATR regulation of G1/S checkpoint” including PCNA, growth arrest and DNA damage 45 alpha (GADD45a), Chk2, cyclin A, NF-kB, cyclin-dependent kinase 4 (CDK4), FANCD2, Claspin, and CDK2 genes (Additional file 1: Figure S7). GO cellular processes highlighted 617 genes involved in cellular metabolic process (Additional file 3). Finally, the three top scored process networks impaired by the treatment with Chk1 inhibitor were as follows: the DNA damage checkpoint, the S phase of cell cycle, and the apoptosis, confirming the specificity of treatment on its target pathways (Additional file 4). […] Due to its implication in the regulation of the cell cycle and apoptosis, Western blot analysis against c-Jun was performed to better comprehend its biological role in response to PF-00477736. c-Jun is a component of the transcription factor activating protein-1 (AP-1) which is involved in cell cycle progression through the G1 phase by the regulation of the cyclin D1 [28]. […] The data found in the gene expression profile analysis were validated using qPCR.
Gene expression profiling on treated and untreated cells (DMSO 0.1 %) after 24 h of exposure to PF-0077736 was performed using Affymetrix GeneChip Human Gene 1.0 ST platform (Affymetrix Inc. Santa Clara, CA, USA) and following manufacturers’ instructions. Raw data were normalized by using the RMA algorithm and filtered. Genes differentially expressed were selected by analysis of variance (ANOVA) (p value threshold =0.05) using the Partek Genomics Suite software (Partek Incorporated Saint Louis, MO, USA; http://www.partek.com).

[3] = system: mice transplanted with T-ALL (ENU-induced murine leukemia); assay: In vivo efficacy in mice transplanted with T-ALL
Procedure: Leukemic mice were generated by the usage of the tumorigenic agent N-ethyl-N-nitrosourea (ENU). […] Leukemic blasts coming from the spleen of leukemic animals were transplanted into C57BL/6Ly5.1-recipient mice. Three days after transplantation, a time sufficient for leukemic blasts to home the bone marrow of the host, we started to treat the animals.
Experiments involving mice were performed in agreement with Italian guidelines and after the approval of the Institutional Review Board of the European Institute of Oncology. Leukemic mice were generated by a single administration of the tumorigenic agent N-ethyl-N-nitrosourea (Sigma, 50 mg/kg intraperitoneally). Spleen cells from leukemic C57BL6/Ly5.2 mice were injected intravenously (2 × 10^6 cells/mouse) into non-irradiated, recipient C57BL6/Ly5.1 mice. PF-0077736 was administered intraperitoneally starting from day 3 after the transplant of leukemic cells. Mice received doses of PF-0077736 (40 mg/kg each dose) every 3 days for four treatments (q3dx4). Kaplan-Meyer rank test was used to compare the survival rate between treated and control mice.

Structure (SMILES): Cn1cc(-c2[nH]c3cc(NC(=O)[C@H](N)C4CCCCC4)cc4c3c2C=NNC4=O)cn1 [PF-00477736]
- fold change of mean value intensity of γ-H2A.X, treated vs untreated ([1]; BV-173 γ-H2A.X positive cells): five-fold
- hyper-γ-H2A.X-positive cells among γ-H2A.X-positive cells ([1]; treated cells, 1.8 % in the untreated controls): ~6.5%
- Fold-Change (PF-00477736 vs. DMSO), SESN2 ([2]; transcript ID 7899436, 24 h, up-regulated): 2.221
- Fold-Change (PF-00477736 vs. DMSO), RNU11 ([2]; transcript ID 7899502, 24 h, up-regulated): 2.283
- Fold-Change (PF-00477736 vs. DMSO), GADD45A ([2]; transcript ID 7902227, 24 h, up-regulated): 2.163
- Fold-Change (PF-00477736 vs. DMSO), HIST2H4A ([2]; transcript ID 7905067, 24 h, up-regulated): 3.531
- Fold-Change (PF-00477736 vs. DMSO), BTG2 ([2]; transcript ID 7908917, 24 h, up-regulated): 2.0536
- Fold-Change (PF-00477736 vs. DMSO), ATF3 ([2]; transcript ID 7909610, 24 h, up-regulated): 2.764
- Fold-Change (PF-00477736 vs. DMSO), JUN ([2]; transcript ID 7916609, 24 h, up-regulated): 5.3469
- Fold-Change (PF-00477736 vs. DMSO), HIST2H2BF ([2]; transcript ID 7919584, 24 h, up-regulated): 2.188
- Fold-Change (PF-00477736 vs. DMSO), HIST2H2BF ([2]; transcript ID 7919606, 24 h, up-regulated): 2.022
- Fold-Change (PF-00477736 vs. DMSO), HIST2H4A ([2]; transcript ID 7919627, 24 h, up-regulated): 3.531
- Fold-Change (PF-00477736 vs. DMSO), RGS16 ([2]; transcript ID 7922717, 24 h, up-regulated): 2.4
- Fold-Change (PF-00477736 vs. DMSO), NFKB2 ([2]; transcript ID 7930074, 24 h, up-regulated): 2.262
- Fold-Change (PF-00477736 vs. DMSO), KLF6 ([2]; transcript ID 7931810, 24 h, up-regulated): 2.17 and 2.174
- Fold-Change (PF-00477736 vs. DMSO), BNIP3 ([2]; transcript ID 7937079, 24 h, down-regulated): -2.2734
- Fold-Change (PF-00477736 vs. DMSO), BEST1 ([2]; transcript ID 7940582, 24 h, up-regulated): 2.3629
- Fold-Change (PF-00477736 vs. DMSO), TCP11L2 ([2]; transcript ID 7958262, 24 h, up-regulated): 2.209
- Fold-Change (PF-00477736 vs. DMSO), CD69 ([2]; transcript ID 7961075, 24 h, up-regulated): 3.17
- Fold-Change (PF-00477736 vs. DMSO), RND1 ([2]; transcript ID 7962884, 24 h, up-regulated): 2.096
- Fold-Change (PF-00477736 vs. DMSO), DDIT3 ([2]; transcript ID 7964460, 24 h, up-regulated): 3.32 and 3.325
- Fold-Change (PF-00477736 vs. DMSO), FOS ([2]; transcript ID 7975779, 24 h, up-regulated): 2.40 and 2.404
- Fold-Change (PF-00477736 vs. DMSO), CHAC1 ([2]; transcript ID 7982868, 24 h, up-regulated): 2.1
- Fold-Change (PF-00477736 vs. DMSO), MAP1LC3B ([2]; transcript ID 7997740, 24 h, up-regulated): 2.05
- Fold-Change (PF-00477736 vs. DMSO), ALDOC ([2]; transcript ID 8013660, 24 h, down-regulated): -2.184
- Fold-Change (PF-00477736 vs. DMSO), ROCK1P1 ([2]; transcript ID 8019804, 24 h, up-regulated): 2.468
- Fold-Change (PF-00477736 vs. DMSO), PPP1R15A ([2]; transcript ID 8030128, 24 h, up-regulated): 2.884
- Fold-Change (PF-00477736 vs. DMSO), TRIB3 ([2]; transcript ID 8060344, 24 h, up-regulated): 2.719
- Fold-Change (PF-00477736 vs. DMSO), CEBPB ([2]; transcript ID 8063386, 24 h, up-regulated): 2.112
- Fold-Change (PF-00477736 vs. DMSO), NFKBIZ ([2]; transcript ID 8081386, 24 h, up-regulated): 2.098
- Fold-Change (PF-00477736 vs. DMSO), IL8 ([2]; transcript ID 8095680, 24 h, up-regulated): 2.299
- Fold-Change (PF-00477736 vs. DMSO), EGR1 ([2]; transcript ID 8108370, 24 h, up-regulated): 2.571
- Fold-Change (PF-00477736 vs. DMSO), ARRDC3 ([2]; transcript ID 8113073, 24 h, up-regulated): 2.177
- Fold-Change (PF-00477736 vs. DMSO), HIST1H2BJ ([2]; transcript ID 8124484, 24 h, up-regulated): 2.658
- Fold-Change (PF-00477736 vs. DMSO), HIST1H2AJ ([2]; transcript ID 8124518, 24 h, up-regulated): 5.146
- Fold-Change (PF-00477736 vs. DMSO), HIST1H2AM ([2]; transcript ID 8124540, 24 h, up-regulated): 2.131
- Fold-Change (PF-00477736 vs. DMSO), IER3 ([2]; transcript ID 8124848, 24 h, up-regulated): 2.508
- Fold-Change (PF-00477736 vs. DMSO), IER3 ([2]; transcript ID 8178435, 24 h, up-regulated): 2.417
- Fold-Change (PF-00477736 vs. DMSO), IER3 ([2]; transcript ID 8179704, 24 h, up-regulated): 2.508
- upregulated genes ([2]; treated vs DMSO 0.1 %, 24 h, 44 % of 941): 413 genes
- down-modulated genes ([2]; treated vs DMSO 0.1 %, 24 h, 56 % of 941): 528 genes
- differentially expressed genes (p < 0.05) ([2]; treated vs DMSO 0.1 %, 24 h of drug exposure): 941 genes
- overall survival vs vehicle ([3]; 40 mg/kg intraperitoneally q3dx4, five treated vs seven control mice, p value =0.0009, listed as PF-0477736): significantly increases the overall survival; also recorded: increases the survival of treated mice
- survival of treated animals post transplantation ([3]; 40 mg/kg intraperitoneally q3dx4 from day 3 after transplant, five mice, controls (PBS) die all at day 17): up to 59 days
- toxicity for the animals ([3]; 40 mg/kg, q3dx4 schedule, intraperitoneally): seems not to be toxic
